Measured values as given in patent US20240002326A1, “COMPOUNDS AND USE THEREOF IN METHODS OF TREATMENT” (The University of Queensland, priority 2016, published 2024).

Tests used:
[1] = Cytotoxicity assay (Alamar blue), HepG2; format: cell-based; conditions: human, HepG2 cells; HepG2, 24 h
SOX18[109] HMG fragment = SOX18[109] HMG fragment (Mus musculus (Mouse), UniProt P43680); assay: FP DNA-binding competition assay, SOX18[109] HMG fragment; conditions: for remaining activity at 50 µM / remaining activity at 200 µM: SOX18/DNA binding; for remaining activity at 50 µM: read-out: FP bound fraction (%) 50 μM; for remaining activity at 200 µM: read-out: FP bound fraction (%) 200 μM; for SOX18-DNA binding inhibition (FP, words): SAR library, SOX18[109]
Chain of SOX18[109] HMG fragment (P43680 69-177): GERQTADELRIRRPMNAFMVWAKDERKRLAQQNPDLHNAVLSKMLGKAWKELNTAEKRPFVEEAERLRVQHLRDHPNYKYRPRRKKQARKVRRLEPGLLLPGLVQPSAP
Method: Mouse SOX HMG fragments. The HMG domains of mouse SOX2 (Group B), SOX11 (Group C), SOX6 (Group D), SOX9 (Group E), SOX18 (Group F) and SOX15 (Group G) were BP cloned from cDNA templates (IMAGE cDNA clone IDs: Sox18: 3967084; Sox9: 5354229; Sox4: 6822618) into a pDONRTM221 pENTRY vector, sequenced and recombined into a pETG20A or a pHisMBP expression plasmid using Gateway®LR Technology (Ng et al., 2012). Constructs were transformed into Escherichia coli BL21(DE3) cells (Luria-Bertani, 100 μg/ml Ampicillin).
(§1) The DNA-binding competition assay was performed in black 384-well plates, with mouse full length SOX18, or SOX-HMG fragments. All experiments were performed using a fluorescently-labelled Prox1-DNA element. Controls consisted of free labelled DNA (low FP milli-Polarization index, mP), labelled DNA in presence of protein (negative control, high mP), and labelled DNA and protein in presence of competing excess of unlabelled DNA (positive control, low mP)
(§2) The DNA-binding competition assay was performed in 25 uL, in black 384-well plates, using either 30 mM HEPES (N-2-Hydroxyethylpiperazine-N′-2-Ethanesulfonic Acid) (pH 7.5, with 100 mM KCl, 40 mM NaCl, 10 mM NH4OAc, […], 2 mM MgCl2, 0.5 mM EDTA, 0.01% NP-40) for mouse full length SOX18, or Tris-NaCl (10 mM Tris pH 8.0 and 100 mM NaCl) for SOX-HMG fragments. All experiments were performed using a 40 bp double-stranded Prox1-DNA element with 5′ fluorescein amidite (FAM) label (Sigma Proligo or InVitrogen). Optimum binding levels were obtained at 200 nM of mouse full length SOX18 and 60 nM of SOX-HMG fragment, in presence of 5 nM labelled DNA. Controls consisted of free labelled DNA (low FP milli-Polarization index, mP), labelled DNA in presence of protein (negative control, high mP), and labelled DNA and protein in presence of 400 time competing excess of unlabelled DNA (positive control, low mP). Depending on compound, final DMSO concentrations ranged from 2 to 3.33% v/v. After mixing protein, DNA probe and compound, plates were sealed and briskly agitated in the dark for 5 minutes at room temperature, 10 minutes at 37° C., and 30 minutes at room temperature, before reading fluorescence polarization on a Tecan M1000Pro (λexc=485 nm, λem=525 nm). All experiments were performed in triplicates.
In order to pinpoint the possible binding site of the small molecules, the FP assays were repeated with a shorter, DNA-binding centred protein fragment. The DNA binding domain of SOX TFs consists of the […] amino acid long High Mobility Group (HMG) box. The 109 amino-acid long SOX18 fragment (SOX18[109]) corresponds to residues 69-177 (numbering by mouse SOX18), which includes the HMG box (residues 78-149) and N- and C-terminal flanking sequences of 9 and 28 amino-acids, respectively.

[2] = Cytotoxicity assay (Alamar blue), HEK293; format: cell-based; conditions: human, HEK293 cells; HEK293, 24 h
Method: Cell toxicity was determined using Alamar blue, as previously described (McMillian et al., 2002). COS-7 cells were seeded as 7000 cells per well in black wall clear bottom 96-well plates in DMEM medium (Life Technologies Australia) with 10% FBS. HepG2 and HEK293 cell lines, from ATCC, were seeded as 5000 cells per well in black wall clear bottom 384-well cell culture plates in DMEM with 1% FBS. Cells were cultured for 24 h at 37° C., 5% CO2. A serial dilution of compounds was added, with a final DMSO concentration adjusted to 0.5% v/v. Cells were incubated for another 24 h. 1 Triton X-100 was used as negative control, and 0.5% DMSO as positive control. 5 μM Alamar blue was added to each well and fluorescence was measured (λexc=560 nm, λem=590 nm) after 2 h incubation at 37° C. Data were analysed using Prism software.

full-length mouse SOX18 = full-length mouse SOX18 (Mus musculus (Mouse), UniProt P43680); assay: FP DNA-binding competition assay, full-length SOX18; conditions: full-length mouse SOX18, Prox1-DNA probe; for IC50: read-out: FP IC50 ± SD
Chain of full-length mouse SOX18 (P43680 whole entry): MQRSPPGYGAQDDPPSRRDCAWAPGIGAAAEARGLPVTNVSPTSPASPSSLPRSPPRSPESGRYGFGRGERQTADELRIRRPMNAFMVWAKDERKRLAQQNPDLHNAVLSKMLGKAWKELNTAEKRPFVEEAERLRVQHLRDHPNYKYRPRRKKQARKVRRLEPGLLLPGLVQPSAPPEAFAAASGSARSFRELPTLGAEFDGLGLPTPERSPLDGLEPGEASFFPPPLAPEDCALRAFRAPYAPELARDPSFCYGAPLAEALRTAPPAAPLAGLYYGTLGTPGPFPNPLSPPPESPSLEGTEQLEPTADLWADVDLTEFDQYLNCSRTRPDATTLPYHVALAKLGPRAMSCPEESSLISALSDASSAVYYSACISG
Method: Full-length mouse SOX18. A N-terminally tagged mouse HIS-GST-SOX18 was recombinantly expressed in Sf9 cells, purified on GST resin (GE Healthcare Life Sciences, Sweden) and eluted in Tris buffer (50 mM Tris, 500 mM NaCl, 10 mM reduced glutathione, pH 8.0). cDNA clone of mouse Sox18 was PCR amplified and cloned into the pOPIN-GST vector, to generate N-terminally tagged HIS-GST-SOX18. A sequence verified construct was co-transfected with flashBACULTRA (Oxford Expression Technologies, Oxford, United Kingdom) baculovirus DNA onto Spodoptera frugiperda Sf9 cells to obtain recombinantly expressed HIS-GST-SOX18. High Five cells (BTI-TN-5B1-4) in Sf-900™ II serum-free medium were infected at cell density of 1.5×10^6 cells/mL with a multiplicity of infection (MOI) of 5 PFU/cell, and incubated at 21° C. for 144 h before harvest. The cell pellet from 100 mL of expression culture was resuspended in 30 mL of phosphate lysis buffer (50 mM sodium phosphate, 500 mM sodium chloride, 1% Triton X-100, 2 mM magnesium chloride, one tablet of cOmplete Protease Inhibitor Cocktail, pH 7.5) and sonicated on ice for 20 s. The cell lysate was centrifuged at 17,000×g for 40 min at 4° C. Supernatant was incubated with Benzonase Nuclease (Merck Millipore) for 1 h at room temperature for DNA degradation, before being mixed with 500 μL GST resin (GE Healthcare Life Sciences, Sweden) and incubated on a rotating wheel at room temperature for 1 h. The sample was centrifuged at 500×g for 1 min to remove unbound protein in the supernatant. The resin was further washed with 50 resin volumes (RV) wash buffer (50 mM sodium phosphate, 500 mM NaCl, pH 7.5), with unbound protein removed by centrifugation as above. Bound protein was eluted from the resin with 3×1 RV elution buffer (50 mM Tris, 500 mM NaCl, 10 mM reduced glutathione, pH 8.0), collecting the supernatant by centrifugation as above.
as §1, §2

Row | Structure (SMILES) | CC50 at 24 h [1] [µM] | remaining activity at 50 µM (SOX18[109] HMG fragment) [%] | remaining activity at 200 µM (SOX18[109] HMG fragment) [%] | CC50 at 24 h [2] [µM] | FP IC50 ± SD (full-length mouse SOX18) | IC50 (full-length mouse SOX18) [µM] | SOX18-DNA binding inhibition (FP, words) (SOX18[109] HMG fragment)
1 | Cc1cc(O)c(C(=O)O)c(CCc2ccc3ccccc3c2)c1 [Sm36, 2-hydroxy-4-methyl-6-(2-(naphthalen-2-yl)ethyl)benzoic acid] | 37.7 | 10.9 ± 9.6 | -3.9 ± 6.8 | 39.9 |  |  | 
2 | COc1cc(O)c(C(=O)O)c(CCc2ccc3ccccc3c2)c1 [Sm29, 2-hydroxy-4-methoxy-6-(2(naphthalen-2-yl)ethyl)benzoic acid] | 71.2 | 73 ± 1.9 | 2 ± 7.2 | 64.4 |  |  | 
3 | CCCCCCCCCCCc1cccc(O)c1C(=O)O [Sm1, 6-undecyl salicylic acid] |  |  |  |  | high micromolar range | 348 ± 1.1 | 
4 | O=C(O)c1c(O)cc(Cl)cc1/C=C/c1ccc2ccccc2c1 [Sm32, (E)-4-chloro-2-hydroxy-6-(2-(naphthalen-2-yl)vinyl)benzoic acid] | 24 | 3.9 ± 6 | 10.9 ± 5.2 | 37.6 |  |  | 
5 | Cc1cc(O)c(C(=O)O)c(/C=C/c2ccc3ccccc3c2)c1 [Sm35, (E)-2-hydroxy-4-methyl-6-(2-(naphthalen-2-yl)vinyl)benzoic acid] | 30.3 | -1.5 ± 3.5 | -3.7 ± 7.9 | 52.2 |  |  | 
6 | O=C(O)c1c(O)cccc1/C=C/c1ccccc1 [Sm21, (E)-2-hydroxy-6-styrylbenzoic acid] | > 100 | 103 ± 8.8 | 98.1 ± 2.1 | > 100 |  |  | 
7 | Oc1cc(CCc2ccc3ccccc3c2)cc(O)c1O [Sm44, 5-(2-(naphthalen-2-yl)ethyl)benzene-1,2,3-triol] | > 100 | 108 ± 10.1 | 53.5 ± 9.6 | > 100 |  |  | not active
8 | CCN(CC)C(=O)c1c(/C=C\c2ccc3ccccc3c2)cccc1OC [Sm15, (Z)-N,N-diethyl-2-methoxy-6-(2-(naphthalen-2-yl)vinyl)benzamide] |  | 103 ± 7.4 | 121 ± 4.7 | > 100 |  |  | 
9 | COc1cc(CCc2ccc3ccccc3c2)c(C(=O)O)c(OC)c1 [Sm30, 2,4-dimethoxy-6-(2-(naphthalen-2-yl)ethyl)benzoic acid] | > 100 | 99 ± 7.6 | 109 ± 2.8 | > 100 |  |  | 
10 | CCCCCCCCCCCCCc1cccc(O)c1C(=O)O [Sm2, 6-tridecyl salicylic acid] |  |  |  |  | high micromolar range | 341 ± 1.1 | 
11 | COc1cc(CCc2ccc3ccccc3c2)cc(OC)c1OC [Sm43, 2-(3,4,5-trimethoxyphenethyl)naphthalene] | > 100 | 106 ± 9.5 | 113 ± 3.6 | > 100 |  |  | 
12 | CCN(CC)C(=O)c1c(/C=C/c2ccc3ccccc3c2)cccc1OC [Sm16, (E)-N,N-diethyl-2-methoxy-6-(2-(naphthalene-2-yl)vinyl)benzamide] |  | 99.3 ± 6.2 | 109 ± 4.9 | > 100 |  |  | 
13 | COc1cc(/C=C/c2ccc3ccccc3c2)c(C(=O)O)c(OC)c1 [Sm27, (E)-2,4-dimethoxy-6-(2-(naphthalen-2-yl)vinyl)benzoic acid] | > 100 | 97 ± 6.1 | 92.8 ± 21.7 | > 100 |  |  | 
14 | COc1cc(/C=C/c2ccccc2)cc(OC)c1OC [Sm38, (E)-1,2,3-trimethoxy-5-styrylbenzene] | > 100 | 102 ± 11.2 | 120 ± 6.6 | > 100 |  |  | 
15 | O=C(O)c1c(O)cccc1CCc1ccccc1 [Sm22, 2-hydroxy-6-phenethylbenzoic acid] | > 100 | 98.1 ± 6.1 | 93.1 ± 9.5 | > 100 |  |  | completely eliminated all activity
16 | COc1cc(CCc2ccccc2)cc(OC)c1OC [Sm39, 1,2,3-trimethoxy-5-phenethylbenzene] | > 100 | 102 ± 9.7 | 117 ± 8.1 | > 100 |  |  | 
